Laboratory results from patent publication US20250205192A1, “METHODS AND MATERIALS FOR TREATING PANCREATIC DISEASES AND DISORDERS” (MAYO FOUNDATION FOR MEDICAL EDUCATION AND RESEARCH, priority 2022, published 2025).
Entries after “also recorded” stand apart in the source; their conditions may differ.

Tested on: male CD-1 mice
Experiment: Intraperitoneal GTL injection in mice, peritoneal cavity assessed for nodules, adhesions and fibrosis after 1 week
Type: in vivo
Protocol: 25% glyceryl trilinoleate (GTL) homogenous suspension in saline was prepared by heating, mixing, and sonication.
Agent 767 was dissolved in a 25% sonicated suspension of GTL in saline. This was prepared by adding […] of the 25% GTL suspension to 10 mg of 767 at room temperature. The solution was then mixed, heated gently to 37-40° C., and sonicated to ensure homogeneous emulsion.
Each experiment used 4 male CD-1 mice (35-39 grams).
Two mice were each given 0.2 mL of 25% GTL by intraperitoneal injection.
Two mice were given 0.2 mL of 767 in 25% GTL by intraperitoneal injection.
Mice were sacrificed after 1 week, and the peritoneal cavity was assessed for nodules.

Row | SMILES | adherence of duodenum, pancreas and spleen after GTL alone (en bloc excised organs from mice given GTL intraperitoneally) | peritoneal appearance (nodules and strands) after GTL alone (mice given 0.2 mL of 25% GTL by intraperitoneal injection, 1 week, compared with control mice) | pancreatitis abnormalities by blood urea nitrogen (BUN), glucose or albumin levels after GTL alone (mice given GTL intraperitoneally) | fibrosis of the wall of the nodules (Sirius red stain) after GTL alone (nodules from mice given GTL intraperitoneally) | nodules in the peritoneal cavity and in the vicinity of the pancreas (mice given 0.2 mL of 767 in 25% GTL by intraperitoneal injection, sacrificed after 1 week, compared with GTL only) | adhesions in the peritoneal cavity in spaces away from the pancreas (mice given 767 in 25% GTL intraperitoneally, 1 week)
1 | CCCCC/C=C\C/C=C\CCCCCCCC(=O)OCC(COC(=O)CCCCCCC/C=C\C/C=C\CCCCC)OC(=O)CCCCCCC/C=C\C/C=C\CCCCC [GTL, glyceryl trilinoleate] | adherent and difficult to separate | had nodules and strands; also recorded: had clearly discernable nodules | did not exhibit pancreatitis abnormalities | strongly positive for fibrosis | – | –
2 | CCCCCCCCCCC[C@@H](C[C@@H]1OC(=O)[C@H]1CC)OC(=O)[C@H](C)NC=O [compound 767] | – | – | – | – | did not have noticeable nodules | prevented adhesions
